Reference: US8946164B2, “Bioactive peptide” (Kyoto University, priority 2010, dated 2015)

Assays:
mice [1] = experiment: Elevated plus-maze test with peptide given in combination with an inhibitor or receptor antagonist; assay type: in vivo, mouse
Protocol: An anxiolytic peptide of the invention was administered in combination with the inhibitor or one of the antagonists for various receptors as follows, and tests were conducted in the same manner as in Example 1 in order to identify the effect of each antagonist on the anxiolytic activity of the peptide of the present invention, i.e., to identify the receptors on which the peptide of the invention acts.
COX inhibitor: Indomethacin, 10 mg/kg
DP1-R antagonist: BWA868C, 60 μg/kg

mice [2] = experiment: Elevated plus-maze test of anxiolytic effect; assay type: in vivo, mouse; conditions: for Minimum Effective Dose (anxiolytic effect): IP
Protocol: In the present invention, the anxiolytic effects can be evaluated by the elevated plus-maze test, which has been developed as a method for evaluating anxiety-related behaviors to screen anxiolytic drugs and has been widely used (FIG. 1). Specifically, the test is performed as follows: a candidate substance for an anxiolytic drug is orally or intraperitoneally administered to a mouse, the mouse is placed in an elevated plus-maze 30 minutes after the administration, and the potency of the anxiolytic effect is evaluated based on the number of entries into the open arms and the change in the time spent on the open arms.
The elevated plus-maze includes two open arms (25×5 cm) and two closed arms (25×5×15 cm), which were joined to a central platform 50 cm high above the floor (see FIG. 1). Because the closed arms were surrounded by barriers, a mouse could safely walk in the closed arms in spite of the elevated position. On the other hand, because the open arms were not surrounded by barriers, a mouse walking along the open arms would feel anxious that it might fall from the elevated position. Therefore, the more time the mouse spent in the open arms, or the greater the number of entries into the open arms, the less anxious the mouse would feel. Thus, the anxiolytic activity is determined based on these indices.
A mouse was placed on a portion of the central platform facing one of the open arms, and the test was started. During the 5-minute test time, the cumulative time spent in the open arms (abbr.: time in open arms), the number of visits to the open arms (abbr.: visits to open arms), and the total number of visits to the either arms (abbr.: total visits) were recorded. The percentage of the time spent in the open arms and the percentage of the number of visits to the open arms were calculated as indices of anxiety.
The data obtained from the elevated plus-maze test were represented as the mean values±SEM. The data were analyzed by one-way ANOVA, followed by the Fisher test for multiple comparisons.
Each of VYLPR (SEQ ID NO:1) (Example 1), YLPR (SEQ ID NO:2) (Example 2), and LPR (SEQ ID NO:3) (Example 3) dissolved in physiological saline was administered intraperitoneally (IP) or orally (PO) to mice (n=3 to 14) in the amount shown in each figure before the mice were placed on the central portion of the elevated plus-maze. The percentage of the time spent in the open arms, the percentage of the number of visits to the open arms, and the total number of visits to the both arms (total visits) were compared between groups administered each peptide and the control group (0 mg/kg). The results are shown in FIGS. 2 to 5, FIGS. 7 and 8, and Table 1.
Trypsin-digested ovalbumin was used as an active ingredient and was administered intraperitoneally and orally to test the anxiolytic effects using the open arms in the same manner as in Examples 1 to 3.
An aqueous solution of ovalbumin (20 mg/ml) was heated (10-min boiling), and bovine trypsin (E:S=1:100) was added to carry out a reaction at 37° C. for 5 hours. As a result, VYLPR (SEQ ID NO:1) was produced at a high efficiency of 44 mol %. When the aqueous solution of ovalbumin was not pre-heated, VYLPR (SEQ ID NO:1) was below the detection limit and was hardly produced even with the trypsin treatment. TPCK-treated Trypsin from bovine pancreas (Sigma) was used as the bovine trypsin. […]

Substance	anxiolytic effect in the presence of prostaglandin DP1 receptor antagonist (mice [1]; BWA868C 60 μg/kg, FIG. 10A)	anxiolytic effect in the presence of adenosine A2A receptor antagonist (mice [1]; SCH58261 0.1 mg/kg, FIG. 10B)	Minimum Effective Dose (anxiolytic effect) (mice [2])	anxiolytic effect (mice [2]; intraperitoneal administration)	anxiolytic effect (mice [2]; oral administration)
Val-Tyr-Leu-Pro-Arg (VYLPR; Designed peptide)	inhibited	inhibited	0.3 mg/kg		
Leu-Pro-Arg [LPR]			0.3 mg/kg		
Undigested ovalbumin: Undigested ovalbumin (with and without heat treatment) used as the control for the trypsin digest [reference compound]				did not show anxiolytic effects	did not show anxiolytic effects
Tyr-Leu-Pro-Arg (YLPR; Designed peptide)			0.3 mg/kg		
